According to patent US6670446B1, “N1 modified glycopeptides” (Eli Lilly and Company, priority 1998, dated 2003):

Key:
Format in all cases: cell-based
[1] = tested on: Staphylococcus aureus 491; test: MIC, standard broth micro-dilution assay, SA 491
Description: (§1) The antibacterial efficacy of the present compounds is illustrated by Table III. The minimal inhibitory concentrations (MICs) were determined using a standard broth micro-dilution assay.

[2] = tested on: Enterococcus faecalis 276; test: MIC, standard broth micro-dilution assay, EF 276
Description: as §1

[3] = tested on: Staphylococcus aureus 447; test: MIC, standard broth micro-dilution assay, SA 447
Description: as §1

[4] = tested on: Resistant Enterococcus faecium and faecalis; test: MIC, standard broth micro-dilution assay, Resistant; conditions: geometric mean of 4-6 isolates
Description: as §1

[5] = tested on: Staphylococcus epidermidis 270; test: MIC, standard broth micro-dilution assay, SE 270
Description: as §1

[6] = tested on: Staphylococcus aureus X400; test: MIC, standard broth micro-dilution assay, SA X400
Description: as §1

[7] = tested on: Escherichia coli EC14; test: MIC, standard broth micro-dilution assay, EC 14
Description: as §1

[8] = tested on: Staphylococcus aureus X778; test: MIC, standard broth micro-dilution assay, SA X778
Description: as §1

[9] = tested on: Staphylococcus haemolyticus 415; test: MIC, standard broth micro-dilution assay, SH 415
Description: as §1

[10] = tested on: Enterococcus faecium 180; test: MIC, standard broth micro-dilution assay, EF 180
Description: as §1

[11] = tested on: Haemophilus influenzae RD; test: MIC, standard broth micro-dilution assay, HFRD
Description: as §1

[12] = tested on: Staphylococcus aureus S13E
Description: as §1

[13] = tested on: Staphylococcus haemolyticus 105; test: MIC, standard broth micro-dilution assay, SH 105
Description: as §1

[14] = tested on: Staphylococcus aureus 446; test: MIC, standard broth micro-dilution assay, SA 446
Description: as §1

[15] = tested on: Enterococcus gallinarum 245; test: MIC, standard broth micro-dilution assay, EG 245
Description: as §1

[16] = tested on: Staphylococcus aureus 489; test: MIC, standard broth micro-dilution assay, SA 489
Description: as §1

[17] = tested on: Enterococcus faecium 180-1; test: MIC, standard broth micro-dilution assay, EF 180-1
Description: as §1

[18] = tested on: Sensitive Enterococcus faecium and faecalis; test: MIC, standard broth micro-dilution assay, Sensitive; conditions: geometric mean of 4-6 isolates
Description: as §1

[19] = tested on: Enterococcus faecalis 2041; test: MIC, standard broth micro-dilution assay, EF 2041
Description: as §1

[20] = tested on: Staphylococcus aureus SA1199; test: MIC, standard broth micro-dilution assay, SA 1199
Description: as §1

[21] = tested on: Staphylococcus aureus SA1199A; test: MIC, standard broth micro-dilution assay, SA 1199A
Description: as §1

| SMILES | minimal inhibitory concentration (MIC), SA 491 [1] | minimal inhibitory concentration (MIC), EF 276 [2] | minimal inhibitory concentration (MIC), SA 447 [3] | minimal inhibitory concentration (MIC), Resistant [4] | minimal inhibitory concentration (MIC), SE 270 [5] | minimal inhibitory concentration (MIC), SA X400 [6] | minimal inhibitory concentration (MIC), EC 14 [7] | minimal inhibitory concentration (MIC), SA X778 [8] | minimal inhibitory concentration (MIC), SH 415 [9] | minimal inhibitory concentration (MIC), EF 180 [10] | minimal inhibitory concentration (MIC), HFRD [11] | minimal inhibitory concentration (MIC), SA S13E [12] | minimal inhibitory concentration (MIC), SH 105 [13] | minimal inhibitory concentration (MIC), SA 446 [14] | minimal inhibitory concentration (MIC), EG 245 [15] | minimal inhibitory concentration (MIC), SA 489 [16] | minimal inhibitory concentration (MIC), EF 180-1 [17] | minimal inhibitory concentration (MIC), Sensitive [18] | minimal inhibitory concentration (MIC), EF 2041 [19] | minimal inhibitory concentration (MIC), SA 1199 [20] | further results |
| --- | --- | --- | --- | --- | --- | --- | --- | --- | --- | --- | --- | --- | --- | --- | --- | --- | --- | --- | --- | --- | --- |
| CC1OC(OC2c3ccc(c(Cl)c3)Oc3cc4cc(c3OC3OC(CO)C(O)C(O)C3OC3CC(C)(NCc5ccc(-c6ccccc6)cc5)C(O)C(C)O3)Oc3ccc(cc3Cl)C(O)C(NC(=O)c3ccc(-c5ccccc5)cc3)C(=O)NC(CC(N)=O)C(=O)NC4C(=O)NC3C(=O)NC2C(=O)NC(C(=O)O)c2cc(O)cc(O)c2-c2cc3ccc2O)CC(C)(N)C1O (stereo not drawn) [Example 6, N^1-(p-phenylbenzoyl)-N^DISACC-(p-phenylbenzyl)desleucylA82846B] | 0.5 | 2 | 2 | 38 | 0.5 | 1 | >64 | 0.5 | 2 | 2 | >64 | 1 | 0.5 | 1 | 1 | 2 | 0.25 | 3.5 | 2 | 0.5 | minimal inhibitory concentration (MIC), SA 1199A [21]: 0.125 |
| CC1OC(OC2c3ccc(c(Cl)c3)Oc3cc4cc(c3OC3OC(CO)C(O)C(O)C3OC3CC(C)(NCc5ccc(-c6ccccc6)cc5)C(O)C(C)O3)Oc3ccc(cc3Cl)C(O)C(NC(=O)C3CCCN3C(=O)OC(C)(C)C)C(=O)NC(CC(N)=O)C(=O)NC4C(=O)NC3C(=O)NC2C(=O)NC(C(=O)O)c2cc(O)cc(O)c2-c2cc3ccc2O)CC(C)(N)C1O [Example 29, N^1-(N-BOC-L-proline) derivative of N^DISACC-(p-phenylbenzyl)desleucylA82846B] | ≦.06 | 0.25 | 0.5 | 27 | ≦.06 | 0.25 | >64 | 0.125 | 0.5 | 4 | >64 | 0.5 | 0.125 | 2 | 2 | 0.25 | ≦.06 | 1.2 | 0.125 | 0.125 | minimal inhibitory concentration (MIC), SA 1199A [21]: ≦.06 |
| CC1OC(OC2C(Oc3c4cc5cc3Oc3ccc(cc3Cl)[C@@H](O)[C@@H](NC(=O)CCCCCCCc3ccccc3)C(=O)N[C@@H](CC(N)=O)C(=O)N[C@H]5C(=O)N[C@H]3C(=O)NC(C(=O)N[C@H](C(=O)O)c5cc(O)cc(O)c5-c5cc3ccc5O)[C@H](OC3CC(C)(N)C(O)C(C)O3)c3ccc(c(Cl)c3)O4)OC(CO)C(O)C2O)CC(C)(N)C1O (stereo partly drawn) [Example 2, N^1-(8-phenyl-n-octanoyl)desleucylA82846B] | ≦.06 | ≦.06 | ≦.06 | >128 | 0.125 | ≦.06 | >64 | ≦.06 | 8 | 8 | no growth | ≦.06 | 1 | ≦.06 | 0.25 | ≦.06 | ≦.06 | 1.5 | ≦.06 | 0.125 | minimal inhibitory concentration (MIC), SA 1199A [21]: ≦.06 |
| CC(C)CC(N)C(=O)NC1C(=O)NC(CC(N)=O)C(=O)NC2C(=O)NC3C(=O)NC(C(=O)NC(C(=O)O)c4cc(O)cc(O)c4-c4cc3ccc4O)C(OC3CC(C)(N)C(O)C(C)O3)c3ccc(c(Cl)c3)Oc3cc2cc(c3OC2OC(CO)C(O)C(O)C2OC2CC(C)(NCc3ccc(-c4ccccc4)cc3)C(O)C(C)O2)Oc2ccc(cc2Cl)C1O [Example 13, N^1-D-leucine derivative of N^DISACC-(p-phenylbenzyl)desleucylA82846B] | 1 | 0.5 | 1 | 2.4 | 0.25 | 0.5 | >64 | 1 | 0.5 | 0.25 | 16 | 0.5 | 1 | 1 | ≦.06 | 0.5 | ≦.06 | 0.095 | ≦.06 | 1 | minimal inhibitory concentration (MIC), SA 1199A [21]: 0.25 |
| CCCCCCNC(CC(C)C)C(=O)NC1C(=O)NC(CC(N)=O)C(=O)NC2C(=O)NC3C(=O)NC(C(=O)NC(C(=O)O)c4cc(O)cc(O)c4-c4cc3ccc4O)C(OC3CC(C)(N)C(O)C(C)O3)c3ccc(c(Cl)c3)Oc3cc2cc(c3OC2OC(CO)C(O)C(O)C2OC2CC(C)(NCCCCCC)C(O)C(C)O2)Oc2ccc(cc2Cl)C1O [Example 38, N^1-(N-n-hexyl-D-leucine) derivative of N^DISACC-n-hexyl desleucylA82846B] | ≦.06 | 0.25 | 1 | 6.7 | 1 | 1 | >64 | 0.5 | 1 | 2 | no | 0.5 | 1 | 1 | 0.5 | 0.25 | no growth | 0.19 | ≦.06 | 1 | minimal inhibitory concentration (MIC), SA 1199A [21]: ≦.06 |
